Values after ≈ are worked out from the molar mass of the structure shown. Where two headings read alike, the source gives them in different places.
Columns and labels:
Format in all cases: cell-based
[1] = test system: Streptococcus pneumoniae IMC B-0919 (PRSP); experiment: Antimicrobial activity test (MIC), clinical isolate IMC B-0919
Procedure: (§1) Using Streptococcus pneumoniae that include clinical isolates of PRSP, the antimicrobial activity of each of the prepared anti-PRSP agents was measured in accordance with the “determination method of minimum inhibitory concentration of drug against bacteria” of Japanese Society of Chemotherapy (for re-revised version, see Chemotherapy 29; 76, 1981).
(§2) 11 test strains of Streptococcus pneumoniae including IMC B-0919 are all clinical isolates, of which 2 strains, IMC B-0921 and IMC B-1229, are classified into penicillin susceptible Streptococcus pneumoniae (PSSP) and the remaining 9 strains are classified into penicillin-resistant Streptococcus pneumoniae (PRSP) (according to NCCLS standards).

[2] = test system: Streptococcus pneumoniae IMC B-0920 (PRSP); experiment: Antimicrobial activity test (MIC), clinical isolate IMC B-0920
Procedure: as §1, §2

[3] = test system: Streptococcus pneumoniae IMC B-0922 (PRSP); experiment: Antimicrobial activity test (MIC), clinical isolate IMC B-0922
Procedure: as §1, §2

[4] = test system: Streptococcus pneumoniae IMC B-1231 (PRSP); experiment: Antimicrobial activity test (MIC), clinical isolate IMC B-1231
Procedure: as §1, §2

[5] = test system: Streptococcus pneumoniae IMC B-1232 (PRSP); experiment: Antimicrobial activity test (MIC), clinical isolate IMC B-1232
Procedure: as §1, §2

[6] = test system: Streptococcus pneumoniae IMC B-1233 (PRSP); experiment: Antimicrobial activity test (MIC), clinical isolate IMC B-1233
Procedure: as §1, §2

[7] = test system: Streptococcus pneumoniae IMC B-1234 (PRSP); experiment: Antimicrobial activity test (MIC), clinical isolate IMC B-1234
Procedure: as §1, §2

[8] = test system: Streptococcus pneumoniae IMC B-1235 (PRSP); experiment: Antimicrobial activity test (MIC), clinical isolate IMC B-1235
Procedure: as §1, §2

[9] = test system: Streptococcus pneumoniae IMC B-1236 (PRSP); experiment: Antimicrobial activity test (MIC), clinical isolate IMC B-1236
Procedure: as §1, §2

[10] = test system: Streptococcus pneumoniae IMC B-0921 (PSSP); experiment: Antimicrobial activity test (MIC), clinical isolate IMC B-0921
Procedure: as §1, §2

[11] = test system: Streptococcus pneumoniae IMC B-1229 (PSSP); experiment: Antimicrobial activity test (MIC), clinical isolate IMC B-1229
Procedure: as §1, §2

[12] = PRSP clinical isolate IMC B-0919
[13] = Streptococcus pneumoniae IMC B-0919, PRSP
[14] = PRSP clinical isolate IMC B-0920
[15] = Streptococcus pneumoniae IMC B-0920, PRSP
[16] = PRSP clinical isolate IMC B-0922
[17] = Streptococcus pneumoniae IMC B-0922, PRSP
[18] = PRSP clinical isolate IMC B-1231
[19] = Streptococcus pneumoniae IMC B-1231, PRSP
[20] = PRSP clinical isolate IMC B-1232
[21] = Streptococcus pneumoniae IMC B-1232, PRSP
[22] = PRSP clinical isolate IMC B-1233
[23] = Streptococcus pneumoniae IMC B-1233, PRSP
[24] = PRSP clinical isolate IMC B-1234
[25] = Streptococcus pneumoniae IMC B-1234, PRSP
[26] = PRSP clinical isolate IMC B-1235
[27] = Streptococcus pneumoniae IMC B-1235, PRSP
[28] = PRSP clinical isolate IMC B-1236
[29] = Streptococcus pneumoniae IMC B-1236, PRSP
[30] = PSSP clinical isolate IMC B-0921
[31] = Streptococcus pneumoniae IMC B-0921, PSSP
[32] = PSSP clinical isolate IMC B-1229
[33] = Streptococcus pneumoniae IMC B-1229, PSSP

`CCC1OC(=O)CCC(C)C(OC2OC(C)CC(N(C)C)C2O)C(CC=O)CC(C)C(=O)C=CC(C)=CC1COC(=O)NCc1ccc(OC)cc1` (stereo not shown) [MKT-1011] showed an MIC [1, 12] of 0.1 µg/mL (≈ 0.137 µM), an MIC [1, 13] of 0.1 µg/mL (≈ 0.137 µM) and an MIC [2, 14] of 0.1 µg/mL (≈ 0.137 µM). The MIC [2, 15] was 0.1 µg/mL (≈ 0.137 µM), the MIC [3, 16] was 0.2 µg/mL (≈ 0.274 µM) and the MIC [3, 17] was 0.2 µg/mL (≈ 0.274 µM). The MIC [4, 18] was 50 µg/mL (≈ 68.6 µM), the MIC [4, 19] was 50 µg/mL (≈ 68.6 µM) and the MIC [5, 20] was 0.1 µg/mL (≈ 0.137 µM). The MIC [5, 21] was 0.1 µg/mL (≈ 0.137 µM), the MIC [6, 22] was 0.1 µg/mL (≈ 0.137 µM) and the MIC [6, 23] was 0.1 µg/mL (≈ 0.137 µM). For the same compound, the MIC [7, 24] was 0.1 µg/mL (≈ 0.137 µM), the MIC [7, 25] was 0.1 µg/mL (≈ 0.137 µM) and the MIC [8, 26] was 6.25 µg/mL (≈ 8.57 µM). The MIC [8, 27] was 6.25 µg/mL (≈ 8.57 µM), the MIC [9, 28] was 1.56 µg/mL (≈ 2.14 µM) and the MIC [9, 29] was 1.56 µg/mL (≈ 2.14 µM). The MIC [10, 30] was 0.1 µg/mL (≈ 0.137 µM), the MIC [10, 31] was 0.1 µg/mL (≈ 0.137 µM) and the MIC [11, 32] was 0.2 µg/mL (≈ 0.274 µM). The MIC [11, 33] was 0.2 µg/mL (≈ 0.274 µM).

`CCC1OC(=O)CCC(C)C(OC2OC(C)CC(N(C)C)C2O)C(CC=O)CC(C)C(=O)C=CC(C)=CC1CNC(C)=O` (stereo not shown) [MKT-3201] showed an MIC [1, 12] of 0.78 µg/mL (≈ 1.29 µM), an MIC [2, 14] of 0.78 µg/mL (≈ 1.29 µM) and an MIC [3, 16] of 0.39 µg/mL (≈ 0.643 µM). The MIC [4, 18] was 1.56 µg/mL (≈ 2.57 µM), the MIC [5, 20] was 0.39 µg/mL (≈ 0.643 µM) and the MIC [6, 22] was 0.39 µg/mL (≈ 0.643 µM). For the same compound, the MIC [7, 24] was 0.39 µg/mL (≈ 0.643 µM), the MIC [8, 26] was 12.5 µg/mL (≈ 20.6 µM) and the MIC [9, 28] was 50 µg/mL (≈ 82.4 µM). It also gave an MIC [10, 30] of 0.2 µg/mL (≈ 0.33 µM) and an MIC [11, 32] of 0.2 µg/mL (≈ 0.33 µM).

`CCC1OC(=O)CCC(C)C(OC2OC(C)CC(N(C)C)C2O)C(CC=O)CC(C)C(=O)C=CC(C)=CC1CN(C)C` (stereo not shown) [MKT-3101] was tested, and the MIC [1, 12] was 0.78 µg/mL (≈ 1.32 µM), the MIC [2, 14] was 0.78 µg/mL (≈ 1.32 µM) and the MIC [3, 16] was 0.39 µg/mL (≈ 0.658 µM). For the same compound, the MIC [4, 18] was 12.5 µg/mL (≈ 21.1 µM), the MIC [5, 20] was 0.2 µg/mL (≈ 0.337 µM) and the MIC [6, 22] was 0.2 µg/mL (≈ 0.337 µM). The MIC [7, 24] was 0.2 µg/mL (≈ 0.337 µM), the MIC [8, 26] was 25 µg/mL (≈ 42.2 µM) and the MIC [9, 28] was 50 µg/mL (≈ 84.3 µM). For the same compound, the MIC [10, 30] was 0.2 µg/mL (≈ 0.337 µM) and the MIC [11, 32] was 0.2 µg/mL (≈ 0.337 µM).

For `CC[C@H]1OC(=O)C[C@@H](O)[C@H](C)[C@@H](O[C@@H]2O[C@H](C)[C@@H](O[C@H]3C[C@@](C)(O)[C@@H](O)[C@H](C)O3)[C@H](N(C)C)[C@H]2O)[C@@H](CC=O)C[C@@H](C)C(=O)/C=C/C(C)=C/[C@@H]1CO[C@@H]1O[C@H](C)[C@@H](O)[C@@H](OC)[C@H]1OC` [tylosin, reference compound], the MIC ([1]; Streptococcus pneumoniae IMC B-0919, PRSP, read-out: MIC) was 0.39 µg/mL (≈ 0.426 µM), the MIC ([2]; Streptococcus pneumoniae IMC B-0920, PRSP, read-out: MIC) was 0.39 µg/mL (≈ 0.426 µM) and the MIC ([3]; Streptococcus pneumoniae IMC B-0922, PRSP, read-out: MIC) was 0.39 µg/mL (≈ 0.426 µM). For the same compound, the MIC ([4]; Streptococcus pneumoniae IMC B-1231, PRSP, read-out: MIC) was 100 µg/mL (≈ 109 µM), the MIC ([5]; Streptococcus pneumoniae IMC B-1232, PRSP, read-out: MIC) was 0.39 µg/mL (≈ 0.426 µM) and the MIC ([6]; Streptococcus pneumoniae IMC B-1233, PRSP, read-out: MIC) was 0.78 µg/mL (≈ 0.851 µM). The MIC ([7]; Streptococcus pneumoniae IMC B-1234, PRSP, read-out: MIC) was 0.39 µg/mL (≈ 0.426 µM), the MIC ([8]; Streptococcus pneumoniae IMC B-1235, PRSP, read-out: MIC) was > 100 µg/mL and the MIC ([9]; Streptococcus pneumoniae IMC B-1236, PRSP, read-out: MIC) was > 100 µg/mL. For the same compound, the MIC ([10]; Streptococcus pneumoniae IMC B-0921, PSSP, read-out: MIC) was 0.39 µg/mL (≈ 0.426 µM) and the MIC ([11]; Streptococcus pneumoniae IMC B-1229, PSSP, read-out: MIC) was 0.39 µg/mL (≈ 0.426 µM).

Work on `CCC1OC(=O)CCC(C)C(OC2OC(C)CC(N(C)C)C2O)C(CC=O)CC(C)C(=O)C=CC(C)=CC1CN(C)CCc1ccc(OC)c(OC)c1` (stereo not shown) [MKT-6104] yielded an MIC [1, 12] of 1.56 µg/mL (≈ 2.1 µM), an MIC [2, 14] of 0.78 µg/mL (≈ 1.05 µM) and an MIC [3, 16] of 0.78 µg/mL (≈ 1.05 µM). It also gave an MIC [4, 18] of 50 µg/mL (≈ 67.3 µM), an MIC [5, 20] of 1.56 µg/mL (≈ 2.1 µM) and an MIC [6, 22] of 1.56 µg/mL (≈ 2.1 µM). It also gave an MIC [7, 24] of 1.56 µg/mL (≈ 2.1 µM), an MIC [8, 26] of 25 µg/mL (≈ 33.6 µM) and an MIC [9, 28] of 25 µg/mL (≈ 33.6 µM). It also gave an MIC [10, 30] of 0.78 µg/mL (≈ 1.05 µM) and an MIC [11, 32] of 1.56 µg/mL (≈ 2.1 µM).

`CC=CC=CC(=O)OCC1C=C(C)C=CC(=O)C(C)CC(CC=O)C(OC2OC(C)CC(N(C)C)C2O)C(C)CCC(=O)OC1CC` (stereo not shown) [MKT-2110] showed an MIC [1, 13] of 0.05 µg/mL (≈ 0.0758 µM), an MIC [2, 15] of 0.20 µg/mL (≈ 0.303 µM) and an MIC [3, 17] of 0.10 µg/mL (≈ 0.152 µM). The MIC [4, 19] was 25 µg/mL (≈ 37.9 µM), the MIC [5, 21] was 0.20 µg/mL (≈ 0.303 µM) and the MIC [6, 23] was 0.10 µg/mL (≈ 0.152 µM). For the same compound, the MIC [7, 25] was 0.10 µg/mL (≈ 0.152 µM), the MIC [8, 27] was 50 µg/mL (≈ 75.8 µM) and the MIC [9, 29] was 12.5 µg/mL (≈ 18.9 µM). The MIC [10, 31] was 0.10 µg/mL (≈ 0.152 µM) and the MIC [11, 33] was 0.20 µg/mL (≈ 0.303 µM).

With `CCC1OC(=O)CCC(C)C(OC2OC(C)CC(N(C)C)C2O)C(CC=O)CC(C)C(=O)C=CC(C)=CC1CCl` (stereo not shown) [MKT-3007] the MIC [1, 13] was 0.20 µg/mL (≈ 0.342 µM), the MIC [2, 15] was 0.20 µg/mL (≈ 0.342 µM) and the MIC [3, 17] was 0.20 µg/mL (≈ 0.342 µM). For the same compound, the MIC [4, 19] was 25 µg/mL (≈ 42.8 µM), the MIC [5, 21] was 0.20 µg/mL (≈ 0.342 µM) and the MIC [6, 23] was 0.20 µg/mL (≈ 0.342 µM). It also gave an MIC [7, 25] of 0.20 µg/mL (≈ 0.342 µM), an MIC [8, 27] of 50 µg/mL (≈ 85.6 µM) and an MIC [9, 29] of 50 µg/mL (≈ 85.6 µM). For the same compound, the MIC [10, 31] was 0.10 µg/mL (≈ 0.171 µM) and the MIC [11, 33] was 0.20 µg/mL (≈ 0.342 µM).

Source: patent US8053418B2, “Anti-penicillin resistant pneumococci agent and novel 16-membered macrolide derivative” (Microbial Chemistry Research Foundation, priority 2005, dated 2011)
